In patent US10111874B2, “Combination therapies for treatment of cancer” (Araxes Pharma LLC, priority 2014, dated 2018):

Tests used:
H358 cells (KRAS G12C) = experiment: Western blots of downstream KRAS signaling nodes and apoptosis markers in H358 cells; assay type: cell-based; conditions: for inhibition of downstream KRAS signaling nodes (Western blot) / apoptosis based on cleaved PARP levels: H358 cells; for inhibition of downstream KRAS signaling nodes (Western blot): alone; for apoptosis based on cleaved PARP levels: erlotinib 5 μM; for G1 arrest and induction of apoptosis: H358 cells (FIG. 9, left panel)
Protocol: FIG. 2 depicts western blot analysis of downstream targets of K-Ras signaling. […] Paclitaxel was used as a positive control. The western blots were probed with antibodies for p-AKT, p-ERK, total ERK, p-RSK, p-S6 and cleaved PARP. Cleaved PARP is indicative of apoptosis. B) A549 cells that express the G12S isoform of K-Ras were used a control for K-Ras G12C inhibitor specificity. A549 cells were treated as in A).
Western blots were used to analyze downstream KRAS signaling nodes (AKT, ERK, RSK, S6) and a marker of apoptosis (cleaved PARP).
Western blots were used to analyze downstream KRAS signaling nodes (AKT, ERK, RSK, S6) and a marker of apoptosis (cleaved PARP). […] Taxol (paclitaxel) was used as a positive control.
Western blots were used to analyze downstream KRAS signaling nodes (AKT, ERK, RSK, S6) and a marker of apoptosis (cleaved PARP). […] Caspase activity was measured using a standard caspase activity luminescence assay (Capase-Glo, Promega).

[1] = target: T1, KRAS G12C 1-169, his-tagged protein, GDP-loaded (Homo sapiens, UniProt P01116, G12C); experiment: Biochemical assay: covalent binding to KRAS G12C analyzed by mass spectrometry
T1 construct: KRAS G12C 1-169, his-tagged protein, GDP-loaded
T1 sequence (P01116 1-169 isoform P01116-2 G12C): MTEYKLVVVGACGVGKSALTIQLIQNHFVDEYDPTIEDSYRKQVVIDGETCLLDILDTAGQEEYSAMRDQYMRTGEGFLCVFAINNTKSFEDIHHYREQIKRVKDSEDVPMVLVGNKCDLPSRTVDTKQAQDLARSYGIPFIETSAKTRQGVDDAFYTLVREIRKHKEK

[2] = tested on: mutant cell lines (NCI-H23, SW1573); experiment: Western blots, KRAS G12C inhibitor with ruxolitinib or momelotinib; assay type: cell-based; conditions: I-272 1 μM; ruxolitinib or momelotinib 1 and 5 μM
Protocol: Western blots were used to analyze downstream KRAS signaling nodes (AKT, ERK, S6), transcription factors (STAT3, IκBα), protein marker (TBK1) and a marker of apoptosis (cleaved PARP). Treatment of mutant cell lines (NCI-H23, SW1573) were tested with an exemplary KRAS G12C inhibitor (compound I-272, 1 μM) alone or in combination with one of ruxolitinib (JAK 1/2 inhibitor, 1 and 5 μM) or momelotinib (JAK1/2, TBK1, IKKe inhibitor, 1 and 5 μM). […] Further, there is synergistic p-S6 inhibition in each of the combinations. Synergistic apoptosis strongly occurred when TBK1 and non-canonical NFκB signaling is inhibited.

H358 cells = experiment: Flow cytometry, cell cycle progression and apoptosis (sub-diploid cells); assay type: cell-based; conditions: single agents
Protocol: B) The average apoptosis response of NCI-H358, NCI-H1792, NCI-H2122, and SW1573 cell lines generated by flow cytometry as described in A).
(§1) Apoptosis was measured via flow cytometry. Gated populations=% of subdiploid apoptotic cells.
as §1
FIG. 7 depicts apoptosis in NCI-H358 cells treated with II-64 (10 μM), SN38 (5 nM), or a combination treatment (II-64+SN38). […] Apoptosis was measured via flow cytometry. Gated populations=% of subdiploid apoptotic cells.
Flow cytometry was used to evaluate KRAS G12C inhibitor combination treatments.
Next, flow cytometry was used to evaluate a KRAS G12C inhibitor in combination with the chemotherapeutic agents paclitaxel or docetaxel.

[3] = I-74 15 μM, PD0325901 100 nM, GDC0941 1 μM
[4] = compounds 48-246, measured at 2 h
[5] = 24 hours, G12C inhibitors 10 μM, GDC0941 2 μM (FIG. 2)
[6] = compounds 1-47, measured at 24 h
[7] = compounds 247-342, measured at 30 min

C=CC(=O)N1CCN(c2ncnc3cc(-c4ccccc4O)c(Cl)cc23)CC1 [Compound I-74, 1-(4-(6-chloro-7-(2-hydroxyphenyl)quinazolin-4-yl)piperazin-1-yl)prop-2-en-1-one]
inhibition of downstream KRAS signaling nodes (Western blot) (H358 cells (KRAS G12C); 15 μM, 24 hours): clear and nearly complete inhibition of p-ERK, p-RSK, and p-S6
apoptosis based on cleaved PARP levels (H358 cells (KRAS G12C); [3]): minimal cleaved PARP
Binding % [1, 4]: +++ (+++indicates binding activity greater than 50% and up to 75%)

C=CC(=O)N1CC(N2CCN(C(=O)CNc3cc(CC)c(Cl)cn3)CC2)C1 [II-74, 1-(3-(4-(2-(5-chloro-4-ethylpyridin-2-ylamino)acetyl)-piperazin-1-yl)azetidin-1-yl)prop-2-en-1-one]
G1 arrest and induction of apoptosis (H358 cells (KRAS G12C)): G1 arrest with low to modest induction of apoptosis
Binding % ([1]; determined at 2 hrs): + (+indicates binding activity from 5% to 20%)

C=CC(=O)N1CCN(c2ncnc3c(F)c(-c4ccccc4F)c(Cl)cc23)CC1 [Compound I-158, 1-(4-(6-chloro-8-fluoro-7-(2-fluorophenyl)quinazolin-4-yl)piperazin-1-yl)prop-2-en-1-one]
apoptosis based on cleaved PARP levels (H358 cells (KRAS G12C); [5]): minimal cleaved PARP
inhibition of downstream KRAS signaling nodes (Western blot) (H358 cells (KRAS G12C); 24 hours, 10 μM (FIG. 2)): clear and nearly complete inhibition of p-ERK, p-RSK, and p-S6, with partial inhibition of p-AKT
Binding % [1, 4]: ++++ (++++indicates binding activity greater than 75%)

O=C(NOC[C@H](O)CO)c1ccc(F)c(F)c1Nc1ccc(I)cc1F [PD0325901]
G1 arrest and induction of apoptosis (H358 cells (KRAS G12C)): G1 arrest with low to modest induction of apoptosis
apoptosis based on cleaved PARP levels (H358 cells (KRAS G12C); [3]): does not induce robust apoptosis

N#CCNC(=O)c1ccc(-c2ccnc(Nc3ccc(N4CCOCC4)cc3)n2)cc1 [momelotinib, reference compound]
apoptosis based on cleaved PARP levels [2]: does not induce robust apoptosis

CS(=O)(=O)N1CCN(Cc2cc3nc(-c4cccc5[nH]ncc45)nc(N4CCOCC4)c3s2)CC1 [GDC0941, 2-(1H-indazol-4-yl)-6-(4-methanesulfonyl-piperazin-1-ylmethyl)-4-morpholin-4-yl-thieno[3,2-d]pyrimidine, reference compound]
cell cycle arrest and induction of apoptosis (flow cytometry) (H358 cells): G1 arrest with low to modest induction of apoptosis
G1 arrest and induction of apoptosis (H358 cells (KRAS G12C)): G1 arrest with low to modest induction of apoptosis
apoptosis based on c-caspase 3 levels (H358 cells (KRAS G12C); H358 cells (FIG. 11)): does not induce robust apoptosis

C=CC(=O)N1CCN(c2ncnc3cc(Cl)c(-c4ccc(Cl)cc4)cc23)CC1C(N)=O (stereo not drawn) [Compound I-44, 1-acryloyl-4-(7-chloro-6-(4-chlorophenyl)quinazolin-4-yl)piperazin-2-carboxamide]
Binding % [1, 6]: +++ (+++indicates binding activity greater than 50% and up to 75%)

C=CC(=O)N1CCN(c2c(C#N)cnc3c(F)c(-c4cc(O)cc5ccccc45)c(Cl)cc23)CC1 [Compound I-291, 4-(4-acryloylpiperazin-1-yl)-6-chloro-8-fluoro-7-(3-hydroxynaphthalen-1-yl)quinoline-3-carbonitrile]
Binding % [1, 7]: ++++ (++++indicates binding activity greater than 75%)

C=CC(=O)N1CCN(c2ncnc3cc(-c4c(Cl)ccc5[nH]ncc45)c(Cl)cc23)CC1 [Compound I-266, 1-(4-(6-chloro-7-(5-chloro-1H-indazol-4-yl)quinazolin-4-yl)piperazin-1-yl)prop-2-en-1-one]
Binding % [1, 7]: +++ (+++indicates binding activity greater than 50% and up to 75%)

C=CC(=O)N1CCN(c2ncnc3cc(-c4ccc(Cl)cc4)c(Cl)cc23)CC1CC#N (stereo not drawn) [Compound I-111, 2-(1-acryloyl-4-(6-chloro-7-(4-chlorophenyl)quinazolin-4-yl)piperazin-2-yl)acetonitrile]
Binding % [1, 4]: +++ (+++indicates binding activity greater than 50% and up to 75%)

C=CC(=O)N1CCN(c2ncnc3cc(-c4c(C)ccc5[nH]ncc45)c(C(F)(F)F)cc23)CC1 [Compound I-237, 1-(4-(7-(5-methyl-1H-indazol-4-yl)-6-(trifluoromethyl)quinazolin-4-yl)piperazin-1-yl)prop-2-en-1-one]
Binding % [1, 4]: ++++ (++++indicates binding activity greater than 75%)

C=CC(=O)N1CCN(c2c(C#N)cnc3cc(-c4ccccc4O)c(Cl)cc23)CC1 [Compound I-182, 4-(4-acryloylpiperazin-1-yl)-6-chloro-7-(2-hydroxyphenyl)quinoline-3-carbonitrile]
Binding % [1, 4]: +++ (+++indicates binding activity greater than 50% and up to 75%)

C=CC(=O)N1CCN(c2ncnc3c(F)c(-c4c(C)ccc5[nH]ncc45)c(Cl)cc23)CC1CC#N (stereo not drawn) [Compound I-294]
Binding % [1, 7]: ++++ (++++indicates binding activity greater than 75%)

C=CC(=O)N1CCN(c2nccc3cc(Cl)c(-c4ccc(Cl)cc4)cc23)CC1 [Compound I-37, 1-(4-(6-chloro-7-(4-chlorophenyl)isoquinolin-1-yl)piperazin-1-yl)prop-2-en-1-one]
Binding % [1, 6]: ++ (++indicates binding activity greater than 25% and up to 50%)

C=CC(=O)N1CCN(c2ncnc3cc(Cl)c(-c4cccc(O)c4)cc23)CC1 [Compound I-14, 1-(4-(7-chloro-6-(3-hydroxyphenyl)quinazolin-4-yl)piperazin-1-yl)prop-2-en-1-one]
Binding % [1, 6]: ++ (++indicates binding activity greater than 25% and up to 50%)

C=CC(=O)Nc1ncc(C)c(-c2cc3ncnc(N4CCN(C(=O)C=C)CC4)c3cc2Cl)n1 [Compound I-178, N-(4-(4-(4-acryloylpiperazin-1-yl)-6-chloroquinazolin-7-yl)-5-methylpyrimidin-2-yl)acrylamide]
Binding % [1, 4]: + (+indicates binding activity from 5% to 25%)

C=CC(=O)N1CCN(c2ncnc3cc(-c4c(O)ccc5ccccc45)c(Cl)cc23)CC1 [Compound I-153, 1-(4-(6-chloro-7-(2-hydroxynaphthalen-1-yl)quinazolin-4-yl)piperazin-1-yl)prop-2-en-1-one]
apoptosis based on cleaved PARP levels (H358 cells (KRAS G12C); [5]): minimal cleaved PARP
inhibition of downstream KRAS signaling nodes (Western blot) (H358 cells (KRAS G12C); 24 hours, 10 μM (FIG. 2)): clear and nearly complete inhibition of p-ERK, p-RSK, and p-S6, with partial inhibition of p-AKT
Binding % [1, 4]: ++++ (++++indicates binding activity greater than 75%)

C=CC(=O)N1CCN(c2nc(N)nc3cc(-c4c(C)ccc5[nH]ncc45)c(Cl)cc23)CC1 [Compound 319, 1-(4-(2-amino-6-chloro-7-(5-methyl-1H-indazol-4-yl)quinazolin-4-yl)piperazin-1-yl)prop-2-en-1-one]
Binding % [1, 7]: ++ (++indicates binding activity greater than 25% and up to 50%)

C=CC(=O)N1CCN(c2ncnc3cc(-c4cnc(N)nc4C)c(Cl)cc23)CC1 [Compound I-190, 1-(4-(7-(2-amino-4-methylpyrimidin-5-yl)-6-chloroquinazolin-4-yl)piperazin-1-yl)prop-2-en-1-one]
Binding % [1, 4]: + (+indicates binding activity from 5% to 25%)

Cc1ccc2[nH]ncc2c1-c1c(Cl)cc2c(N3CCN(C(=O)/C=C/CN(C)C)CC3)ncnc2c1F [Compound I-295, (E)-1-(4-(6-chloro-8-fluoro-7-(5-methyl-1H-indazol-4-yl)quinazolin-4-yl)piperazin-1-yl)-4-(dimethylamino)but-2-en-1-one]
Binding % [1, 7]: + (+indicates binding activity from 5% to 25%)
